Reference: ChEMBL document CHEMBL1140744, “Binding of serotonin and N1-benzenesulfonyltryptamine-related analogs at human 5-HT6 serotonin receptors: receptor modeling studies” (J Med Chem, 2008)

Target: 5-hydroxytryptamine receptor 6 (Homo sapiens, UniProt P50406)
Assay: Displacement of [3H]LSD from human 5HT6 receptor expressed in HEK293 cells
Format: cell-based

Sequence of 5-hydroxytryptamine receptor 6 (P50406 whole entry): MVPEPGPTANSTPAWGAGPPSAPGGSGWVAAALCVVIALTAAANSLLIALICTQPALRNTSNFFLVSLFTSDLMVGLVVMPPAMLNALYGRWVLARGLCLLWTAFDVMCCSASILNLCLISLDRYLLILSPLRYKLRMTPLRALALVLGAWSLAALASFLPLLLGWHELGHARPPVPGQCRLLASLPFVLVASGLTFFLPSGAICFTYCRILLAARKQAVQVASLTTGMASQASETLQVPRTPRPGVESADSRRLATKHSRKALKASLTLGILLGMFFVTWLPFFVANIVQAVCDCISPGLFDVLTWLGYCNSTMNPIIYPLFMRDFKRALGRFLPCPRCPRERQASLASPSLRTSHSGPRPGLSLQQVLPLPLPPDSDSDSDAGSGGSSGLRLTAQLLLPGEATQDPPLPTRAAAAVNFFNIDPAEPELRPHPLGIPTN

| Compound | Ki |
| --- | --- |
| CN(C)[C@H]1CCc2c(cccc2NS(=O)(=O)c2ccccc2)C1 | 90 nM |
| CN(C)CCc1cn(Sc2ccccc2)c2ccccc12 | 90 nM |
| CN(C)[C@@H]1CCc2c(cccc2NS(=O)(=O)c2ccccc2)C1 | 49 nM |
| CCc1[nH]c2ccc(OC)cc2c1C[C@@H]1CCCN1C | 220 nM |
| CCc1[nH]c2ccc(OC)cc2c1C[C@H]1CCCN1C | 1.8 nM |
